Test results: ChEMBL document CHEMBL3301361, “Experimental in vitro DMPK and physicochemical data on a set of publicly disclosed compounds”
Values after ≈ are worked out from the molar mass of the structure shown.

How the values were obtained:
physchem [1] = details: octan-1-ol/water
in vitro [2] = details: human
physchem [3] = details: pH 7.4 buffer
in vitro [4] = details: human, plasma

Row | SMILES | logD (physchem [1]; pH 7.4, LogD7.4) | microsomal CLint (in vitro [2]; liver microsomes) [µL/min/mg] | also measured
1 | Cc1ccc(S(=O)(=O)NC(=O)N2CCC(N3CCC(Oc4ccc(Cl)cc4C)CC3)CC2)cc1 | 1.79 | 6 | 
2 | COc1cccc(NC(=O)CC23CC4CC(CC(C4)C2)C3)c1C |  | > 150 | 
3 | CCCN1CCC(Oc2nccc(Nc3cc(NC(=O)c4cccc(N5CCOCC5)c4)ccc3C)n2)CC1 | 2.6 | 54 | 
4 | CC1CN(C(=O)c2cc3ccccc3[nH]2)CCN1 (configuration not stated) | 0.94 | 8 | 
5 | Cc1ccccc1CCOCCCS(=O)(=O)CCNCCc1ccc(O)c2nc(O)sc12 |  | > 150 | 
6 | Nc1nc(NCc2ccccc2)nc2c1nc(O)n2Cc1ccccc1 | 3.69 |  | microsomal CLint (in vitro [2]; microsomes): 11 µL/min/mg
7 | CCCCc1nc2c(N)nc3ccccc3c2n1CC(C)(C)O |  | < 3 | 
8 | O=C(CC1CCCCC1)Nc1c(Cl)ccc2nc(NCCCO)ccc12 | 3.29 |  | microsomal CLint (in vitro [2]; microsomes): 25 µL/min/mg
9 | Cc1cc2c(C(=O)NC[C@H](C)c3ccccc3)c(O)c(O)cc2c(O)c1-c1c(C)cc2c(C(=O)NC[C@H](C)c3ccccc3)c(O)c(O)cc2c1O [1,1',6,6',7,7'-HEXAHYDROXY-3,3'-DIMETHYL-N5-((R)-2-PHENYLPROPYL)-N5'-((R)-2-PHENYLPROPYL)-2,2'-BINAPHTHYL-5,5'-DICARBOXAMIDE (ATROPISOMERIC MIX)] | 3.48 |  | microsomal CLint (in vitro [2]; microsomes): 34.7 µL/min/mg
10 | CNC(=O)c1cccc2c1c(Sc1ccc(Cl)cc1)c(C)n2CC(=O)O | -0.89 | < 3 | 
11 | Cc1ccc2c(c1)C1(CCN(CCc3nc(-c4ccccc4)oc3C)CC1)OC(=O)N2 |  | 79.4 | logD (physchem [1]; pH 7.4): 4.2
12 | N#Cc1cccc(C[C@@H](C(=O)O)N2CCC(CN3CCC(Oc4ccc(Cl)c(Cl)c4)CC3)CC2)c1 |  | < 3 | 
13 | N=C(N)c1cc2c(/C=C/c3ccc4c(c3)OCO4)cccc2s1 |  | 7 | 
14 | COc1ccc(Sc2c(C)n(CC(=O)O)c3ccc(C)cc23)cc1 |  | < 3 | 
15 | O=c1[nH]c2c(O)ccc([C@@H](O)CNCCCSCCNCCc3cccc(Cl)c3Cl)c2s1 | 1.74 | 35 | 
16 | Cc1c(Sc2ccc(Cl)cc2)c2ccc(Cl)cc2n1CC(=O)O |  | < 3 | 
17 | NC(=O)c1sc(-c2ccc(Cl)cc2)cc1N |  | 31 | 
18 | CN(C(=O)Cc1ccc(S(N)(=O)=O)cc1)C1CCN(CCC(c2ccccc2)c2ccccc2)CC1 |  | 12 | 
19 | C[C@H]1CN(Cc2cc(Cl)ccc2OC(C)(C)C(=O)O)CCN1S(=O)(=O)c1ccccc1 | 0.54 |  | microsomal CLint (in vitro [2]; microsomes): < 3 µL/min/mg
20 | CN(CCOc1ccc(CC2SC(=O)NC2=O)cc1)c1ccccn1 (configuration not stated) [ROSIGLITAZONE] | 2.5 |  | solubility thermodynamic (physchem [3]): 28.2 µM (≈ 10.1 µg/mL); fraction unbound at 5 h (in vitro [4]; PPB): 0.0026
21 | Cc1nc(CSc2nc(N[C@H](C)CO)c3sc(N)nc3n2)cs1 | 1.73 |  | microsomal CLint (in vitro [2]; microsomes): 3 µL/min/mg
22 | O=C(NCC1CCCCC1)c1cc(-n2ncc(=O)[nH]c2=O)ccc1Cl | 1.26 |  | microsomal CLint (in vitro [2]; microsomes): 8.5 µL/min/mg
23 | Cc1ccc2c(c1)c([S+]([O-])c1ccc(Cl)cc1)c(C)n2CC(=O)O (configuration not stated) | 0.05 | 3 | 
24 | CN1CCN(C(=O)c2cc3cc(Br)ccc3[nH]2)CC1 | 2.79 | 20.5 | 

Row | SMILES | logD (physchem [1]; pH 7.4, LogD7.4) | microsomal CLint (in vitro [2]; liver microsomes) [µL/min/mg] | also measured
25 | Cc1c(Cl)ccc(OC2CCN(C[C@H](O)CNC(=O)c3c[nH]c(=O)c4ccc(S(C)(=O)=O)cc34)CC2)c1Cl |  | < 3 | 
26 | COc1ccccc1CNCCc1cccc(CCNC[C@H](O)c2ccc(O)c3[nH]c(=O)sc23)c1 | 0.91 | 56 | 
27 | Cc1c(CC(=O)O)c2cc(F)ccc2n1Cc1nc2ccccc2s1 |  | < 3 | 
28 | CCc1nc2c(N)nc3ccccc3c2n1CC(C)(C)O |  | < 3 | 
29 | O=C(O)CSCC(=O)Nc1nc(-c2ccc(F)cc2)cs1 | -0.2 | < 3 | 
30 | CCc1ccc(CCNCCCSCCNC[C@H](O)c2ccc(O)c3[nH]c(=O)sc23)cc1 | 0.86 | 68 | 
31 | c1cn(-c2ccc(Oc3nccc(Oc4ccc5c(c4)OCO5)n3)cc2)cn1 | 3.27 |  | microsomal CLint (in vitro [2]; microsomes): 13 µL/min/mg
32 | Cc1ccc(NC(=O)c2ccc(C#N)cc2)cc1-n1cnc2ccc(N3CCN(C)CC3)cc2c1=O | 2.73 |  | solubility thermodynamic (physchem [3]): 32.4 µM (≈ 15.5 µg/mL); fraction unbound at 5 h (in vitro [4]; PPB): 0.319
33 | CCCCc1nc2c(N)nc3ccccc3c2n1Cc1ccccc1 | 4.17 |  | microsomal CLint (in vitro [2]; microsomes): 6 µL/min/mg
34 | Cc1c(Sc2ccc(Cl)cc2)c2c(-c3ccccc3)cccc2n1CC(=O)O |  | < 3 | 
35 | Cc1ccc2c(N)c(C(N)=O)sc2n1 |  | 13 | 
36 | N=C(N)c1cc2c(OCc3ccccc3)cccc2s1 |  | 11 | 
37 | O=C(O)COc1ccc(Br)cc1-c1ccccc1 |  | < 3 | 
38 | O=C(O)[C@H](Cc1ccc(Cl)cc1)N1CCC(CN2CCC(Oc3ccc(Cl)c(Cl)c3)CC2)CC1 |  | < 3 | 
39 | CC[C@H](CO)Nc1nc(SCc2cccc(F)c2F)nc2nc(NC(C)C)sc12 |  | 42 | 
40 | NC(=O)Nc1cc(-c2ccsc2)sc1C(N)=O |  | 45 | 
41 | Cc1ccc(CO)cc1N(C)c1ccnc(Nc2cc(N3CCCOCC3)cc(N3CCOCC3)c2)n1 | 3.3 |  | solubility thermodynamic (physchem [3]): 91.2 µM (≈ 46 µg/mL); fraction unbound at 5 h (in vitro [4]; PPB): 0.0556
42 | O=C(O)COc1ccc(C(F)(F)F)cc1-c1ccccc1-c1ccccc1 |  |  | microsomal CLint (in vitro [2]; microsomes): < 3 µL/min/mg
43 | CC(=O)Nc1ccc(O)cc1OC[C@@H](O)CN1CCC2(CC1)Cc1cc(Cl)ccc1O2 |  | 8 | 
44 | CC(C)Cn1c(=O)n(C)c(=O)c2c(C(=O)N3CC[C@@H](O)C3)c(Cc3ccnc4ccc(F)cc34)sc21 | 1.95 |  | solubility thermodynamic (physchem [3]): 871 µM (≈ 445 µg/mL); fraction unbound at 5 h (in vitro [4]; PPB): 0.46
45 | CCS(=O)(=O)Nc1cccc2c1c(Oc1ccc(Cl)cc1)c(C)n2CC(=O)O |  |  | microsomal CLint (in vitro [2]; microsomes): < 3 µL/min/mg
46 | CCN(C(=O)Cc1ccc(S(C)(=O)=O)cc1)C1CCN(CCC(c2ccccc2)C2CCN(Cc3ccccc3)CC2)CC1 (configuration not stated) |  | > 150 | 
47 | C[C@H](CO)Nc1nc(SCc2cccc(F)c2F)nc2nc(NS(C)(=O)=O)sc12 | 0.92 |  | solubility thermodynamic (physchem [3]): 832 µM (≈ 384 µg/mL); fraction unbound at 5 h (in vitro [4]; PPB): 0.0114
48 | Cc1c(Sc2ccc(Cl)cc2)c2cccc(Cl)c2n1CC(=O)O |  | < 3 | 

Row | SMILES | logD (physchem [1]; pH 7.4, LogD7.4) | microsomal CLint (in vitro [2]; liver microsomes) [µL/min/mg] | also measured
49 | CCC(=O)N1CCN(C(=O)c2cc(Cc3n[nH]c(=O)c4ccccc34)ccc2F)CC1 | 1.22 |  | solubility thermodynamic (physchem [3]): 251 µM (≈ 106 µg/mL); fraction unbound at 5 h (in vitro [4]; PPB): 0.371
50 | Cc1c(Oc2ccc(Cl)cc2)c2cc(F)ccc2n1CC(=O)O |  |  | microsomal CLint (in vitro [2]; microsomes): < 3 µL/min/mg
51 | Nc1nc(-c2ccccn2)nc(N)c1Cc1ccc(Cl)cc1Cl |  | 37.1 | 
52 | C[C@H]1CN(Cc2cc(Cl)ccc2CC(=O)O)CCN1S(=O)(=O)Cc1ccccc1 |  |  | microsomal CLint (in vitro [2]; microsomes): < 3 µL/min/mg
53 | O=C(O)COc1ccc(Cl)cc1CN1CCCN(S(=O)(=O)c2ccccc2)CC1 |  |  | microsomal CLint (in vitro [2]; microsomes): < 3 µL/min/mg
54 | Cc1c(Sc2ccc(Cl)cc2)c2c(C#N)c(Cl)ccc2n1CC(=O)O |  | 4 | 
55 | COCC[C@H](Oc1ncnc2c1cnn2-c1ccccc1Cl)C(=O)Nc1ccc(C)cn1 | 3.6 |  | solubility thermodynamic (physchem [3]): 100 µM (≈ 45.3 µg/mL); fraction unbound at 5 h (in vitro [4]; PPB): 0.0457
56 | Cc1ccc(NC(=O)c2ccno2)cc1-n1cnc2ccc(N3CCN(C)CC3)cc2c1=O |  | < 3 | 
57 | CC(=O)N1CCN(c2ccc(OCC3COC(Cn4ccnc4)(c4ccc(Cl)cc4Cl)O3)cc2)CC1 (configuration not stated) [KETOCONAZOLE] |  |  | solubility thermodynamic (physchem [3]): 6.2 µM (≈ 3.29 µg/mL); fraction unbound at 5 h (in vitro [4]): 0.028
58 | O=C(O)c1cccnc1N1CCC(CN2CCC(Oc3ccc(Cl)c(Cl)c3)CC2)CC1 |  |  | microsomal CLint (in vitro [2]; microsomes): 4 µL/min/mg
59 | Cc1ccc(NC(=O)c2cccc(N3CCOCC3)c2)cc1NC(=O)c1ccc(OCc2ccccn2)cc1 |  | 30.3 | 
60 | C[C@@H]1CN(Cc2cc(Cl)ccc2OCC(=O)O)C[C@H](C)N1C(=O)Cc1ccccc1 |  |  | microsomal CLint (in vitro [2]; microsomes): < 3 µL/min/mg
61 | CCN(C(=O)Cc1ccc(S(C)(=O)=O)cc1)C1CCN(CC[C@@H](c2cc(C)cc(C)c2)C2CCN(S(C)(=O)=O)CC2)CC1 |  | > 150 | 
62 | Cc1ccc2c(c1)c(Sc1ccccc1Cl)c(C)n2CC(=O)O |  |  | microsomal CLint (in vitro [2]; microsomes): < 3 µL/min/mg
63 | CC(=O)Nc1ccc2c(c1)c(Sc1ccc(Cl)cc1)c(C)n2CC(=O)O |  | 36 | 
64 | CC(C(=O)O)c1ccc(-c2ccccc2)c(F)c1 (configuration not stated) [FLURBIPROFEN] |  | 23.5 | 
65 | CCc1nc2c(N)nc3ccccc3c2n1CCCCNS(C)(=O)=O [CPG-52852] | 1.24 |  | solubility thermodynamic (physchem [3]): 537 µM (≈ 194 µg/mL); fraction unbound at 5 h (in vitro [4]; PPB): 0.334
66 | Cc1c(OC2CCN(CC3CCN([C@@H](Cc4ccc(F)cc4)C(=O)O)CC3)CC2)ccc(C#N)c1Cl |  |  | microsomal CLint (in vitro [2]; microsomes): 5.5 µL/min/mg
67 | CCN(CC)Cc1cc(Nc2ccnc3cc(Cl)ccc23)ccc1O [AMODIAQUINE] |  |  | microsomal CLint (in vitro [2]; microsomes): > 150 µL/min/mg
68 | Cc1ccc(NC(=O)c2cscn2)cc1-n1cnc2ccc(N3CCN(C)CC3)cc2c1=O |  | < 3 | 
69 | COc1ccc(N(C(=O)c2occc2Cl)C(C(=O)NC[C@@H](C)O)c2ccccc2F)c(OC)c1 (some centres not stated) |  |  | microsomal CLint (in vitro [2]; microsomes): 145 µL/min/mg
70 | CCS(=O)(=O)c1ccc(-c2cc(C(F)(F)F)ccc2OCC(N)=O)c(C)c1 |  | < 3 | 
71 | Cc1c(Sc2ccc(Cl)cc2)c2cc(-c3ccccc3)ccc2n1CC(=O)O |  | 16 | 
